The values below come from US8436012B2, “Imidazopyridin-2-one derivatives” (Daiichi Sankyo Company, Limited, priority 2008, dated 2013).

One assay concerns WM-266-4 cells. Kind of assay: Cell Proliferation Inhibitory Test. The class given is cell-based. To be noted: Homo sapiens, 72 h, cultured three days with test compound, MTT, read-out: 50% cell proliferation inhibitory activity (GI50 value). In outline:
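Cells cultured overnight, then exposed to serially diluted compound for three days; cell amount read by MTT. GI50 solved from 100×[(T−T0)/(C−T0)]=50, with T0 the value at time of compound addition and C the untreated three-day control.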

The next assay addresses T1, human mTOR (Homo sapiens, UniProt P42345).
T1 construct: the portion corresponding to 1362-2549aa at the C terminus of human mTOR; made in house
Kind of assay: mTOR Kinase Activity Inhibition Test. It is filed as biochemical. To be noted: His-tagged mTOR (1362C), biotinylated peptide substrate, ATP, 3 hours at room temperature, fluorescence resonance energy transfer 665 nm/620 nm; read-out: IC50 value of mTOR enzyme inhibitory activity. In outline: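 Purified His-tagged human mTOR (1362–2549aa, from HEK293) was used with biotinylated peptide (8 μg/mL in enzyme solution) in HEPES pH 7.5 with 20 mM MnCl2. Compounds were diluted in 20 μM ATP solution, and the reaction ran 3 h at RT. Phospho-S6K(Thr389) HTRF was read as the 665/620 nm ratio, and IC50 came from % inhibition versus controls.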

Where only a bound is given, the exact number is not on record here.

T1 sequence (P42345 1362-2549): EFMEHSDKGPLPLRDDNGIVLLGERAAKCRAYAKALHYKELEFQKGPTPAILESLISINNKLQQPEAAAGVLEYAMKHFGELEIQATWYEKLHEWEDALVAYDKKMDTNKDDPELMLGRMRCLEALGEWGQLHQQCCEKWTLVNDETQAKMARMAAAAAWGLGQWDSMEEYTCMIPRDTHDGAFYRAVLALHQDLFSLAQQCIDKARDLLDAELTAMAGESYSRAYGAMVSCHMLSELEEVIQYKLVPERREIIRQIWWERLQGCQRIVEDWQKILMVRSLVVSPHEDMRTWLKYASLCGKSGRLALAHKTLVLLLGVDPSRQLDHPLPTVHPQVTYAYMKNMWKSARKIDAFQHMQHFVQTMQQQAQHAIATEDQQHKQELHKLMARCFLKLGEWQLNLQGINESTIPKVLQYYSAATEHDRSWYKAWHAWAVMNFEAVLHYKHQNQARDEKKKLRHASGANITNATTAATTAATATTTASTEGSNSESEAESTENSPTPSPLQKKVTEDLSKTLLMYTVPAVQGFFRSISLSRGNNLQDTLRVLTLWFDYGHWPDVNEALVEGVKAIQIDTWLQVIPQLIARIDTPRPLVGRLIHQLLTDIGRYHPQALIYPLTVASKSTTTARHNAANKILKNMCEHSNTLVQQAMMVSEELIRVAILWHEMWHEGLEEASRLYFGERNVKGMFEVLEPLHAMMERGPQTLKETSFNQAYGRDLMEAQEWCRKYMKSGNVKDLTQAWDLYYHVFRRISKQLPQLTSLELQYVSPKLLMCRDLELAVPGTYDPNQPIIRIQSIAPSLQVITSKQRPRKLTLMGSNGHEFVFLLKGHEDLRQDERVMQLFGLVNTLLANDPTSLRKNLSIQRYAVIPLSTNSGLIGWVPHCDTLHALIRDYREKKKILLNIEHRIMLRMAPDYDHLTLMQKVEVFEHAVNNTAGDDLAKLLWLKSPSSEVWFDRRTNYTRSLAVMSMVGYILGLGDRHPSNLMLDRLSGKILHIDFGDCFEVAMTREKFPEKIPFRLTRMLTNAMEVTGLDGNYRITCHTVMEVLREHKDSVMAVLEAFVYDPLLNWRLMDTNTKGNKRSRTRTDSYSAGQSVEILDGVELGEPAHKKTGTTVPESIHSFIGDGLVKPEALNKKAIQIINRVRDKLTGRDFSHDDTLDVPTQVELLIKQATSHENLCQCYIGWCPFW

A word on the IC50: it is the concentration that inhibits the measured activity by half. On to `O=c1[nH]c2ncc(-c3cnc4[nH]ccc4c3)cc2n1CC1(F)CCOCC1` [Example 69, 1-[(4-Fluorotetrahydro-2H-pyran-4-yl)methyl]-6-(1H-pyrrolo[2,3-b]pyridin-5-yl)-1,3-dihydro-2H-imidazo[4,5-b]pyridin-2-one], for which, in the assay with WM-266-4 cells, the GI50 is under 3 µM. Also, the IC50 on human mTOR is under 0.05 µM.

On to `C[C@@H]1C[C@H](Cn2c(=O)[nH]c3ncc(-c4cnc5[nH]ccc5c4)cc32)C[C@H](C)O1` [Example 71, 1-{[(2R-4r-6S)-2,6-Dimethyltetrahydro-2H-pyran-4-yl]methyl}-6-(1H-pyrrolo-[2,3-b]pyridin-5-yl)-1,3-dihydro-2H-imidazo[4,5-b]pyridin-2-one], for which, in the assay with WM-266-4 cells, the GI50 is under 3 µM. Also, the half-inhibitory concentration (IC50) at human mTOR was under 0.05 µM.

In the case of `Nc1n[nH]c2ccc(-c3cnc4[nH]c(=O)n(CC5CCOCC5)c4c3)cc12` [Example 72, 6-(3-Amino-1H-indazol-5-yl)-1-(tetrahydro-2H-pyran-4-ylmethyl)-1,3-dihydro-2H-imidazo[4,5-b]pyridin-2-one], in the assay with WM-266-4 cells, the GI50 fell in the range of 3 to 25 µM. The IC50 at human mTOR was under 0.05 µM.

As for `O=c1[nH]c2ncc(-c3cnc4ccnn4c3)cc2n1CC1CCOCC1` [Example 73, 6-Pyrazolo[1,5-a]pyrimidin-6-yl-1-(tetrahydro-2H-pyran-4-ylmethyl)-1,3-dihydro-2H-imidazo[4,5-b]pyridin-2-one], in the assay on WM-266-4 cells, the GI50 was 3 to 25 µM. For the same molecule, the IC50 on human mTOR lay within 0.1 to 5 µM.

With `O=c1[nH]c2ncc(-c3cnc4[nH]ncc4c3)cc2n1CC1CCOCC1` [Example 74, 6-(1H-Pyrazolo[3,4-b]pyridin-5-yl)-1-(tetrahydro-2H-pyran-4-ylmethyl)-1,3-dihydro-2H-imidazo[4,5-b]pyridin-2-one], the GI50 with WM-266-4 cells was in the range of 3 to 25 µM. For the same molecule, the IC50 on human mTOR was in the range of 0.1 to 5 µM.

As for `O=c1[nH]c2ncc(-c3cnc4[nH]ccc4n3)cc2n1CC1CCOCC1` [Example 75, 6-(5H-Pyrrolo[2,3-b]pyrazin-2-yl)-1-(tetrahydro-2H-pyran-4-ylmethyl)-1,3-dihydro-2H-imidazo[4,5-b]pyridin-2-one], in the assay on WM-266-4 cells, the GI50 is under 3 µM. Also, the 50% inhibitory concentration (IC50) at human mTOR fell in the range of 0.05 to 0.1 µM.

Take `O=c1[nH]c2ncc(-c3cc4cc[nH]c4nn3)cc2n1CC1CCOCC1` [Example 76, 6-(7H-Pyrrolo[2,3-c]pyridazin-3-yl)-1-(tetrahydro-2H-pyran-4-ylmethyl)-1,3-dihydro-2H-imidazo[4,5-b]pyridin-2-one]: the GI50 in the assay with WM-266-4 cells lay within 3 to 25 µM. Besides, the 50% inhibitory concentration (IC50) on human mTOR is under 0.05 µM.

Turning to `Nc1c[nH]c2ncc(-c3cnc4[nH]c(=O)n(CC5CCOCC5)c4c3)cc12` [Example 77, 6-(3-Amino-1H-pyrrolo[2,3-b]pyridin-5-yl)-1-(tetrahydro-2H-pyran-4-ylmethyl)-1,3-dihydro-2H-imidazo[4,5-b]pyridin-2-one], the GI50 in the assay on WM-266-4 cells fell in the range of 3 to 25 µM. The 50% inhibitory concentration (IC50) on human mTOR is 0.05 to 0.1 µM.

For the molecule `O=c1[nH]c2ncc(-c3cc4cc[nH]c4nc3Cl)cc2n1CC1CCOCC1` [Example 78, 6-(6-Chloro-1H-pyrrolo[2,3-b]pyridin-5-yl)-1-(tetrahydro-2H-pyran-4-ylmethyl)-1,3-dihydro-2H-imidazo[4,5-b]pyridin-2-one], the GI50 in the assay on WM-266-4 cells is under 3 µM. Also, the IC50 at human mTOR is under 0.05 µM.

With `O=c1[nH]c2ncc(-c3cc4cc[nH]c4nc3F)cc2n1CC1CCOCC1` [Example 79, 6-(6-Fluoro-1H-pyrrolo[2,3-b]pyridin-5-yl)-1-(tetrahydro-2H-pyran-4-ylmethyl)-1,3-dihydro-2H-imidazo[4,5-b]pyridin-2-one], the GI50 in the assay with WM-266-4 cells was under 3 µM. The IC50 on human mTOR is under 0.05 µM.

As for `O=Cc1c[nH]c2ccc(-c3cnc4[nH]c(=O)n(CC5CCOCC5)c4c3)cc12` [Example 81, 5-[2-Oxo-1-(tetrahydro-2H-pyran-4-ylmethyl)-2,3-dihydro-1H-imidazo[4,5-b]pyridin-6-yl]-1H-indole-3-carbaldehyde], the GI50 in the assay with WM-266-4 cells was under 3 µM. Moreover, on human mTOR, the IC50 is under 0.05 µM.

Consider `O=c1[nH]c2ncc(-c3ccc4[nH]ccc4n3)cc2n1CC1CCOCC1` [Example 82, 6-(1H-Pyrrolo[3,2-b]pyridin-5-yl)-1-(tetrahydro-2H-pyran-4-ylmethyl)-1,3-dihydro-2H-imidazo[4,5-b]pyridin-2-one], for which the GI50 in the assay with WM-266-4 cells was under 3 µM. For the same molecule, the IC50 at human mTOR is under 0.05 µM.

As to `O=c1[nH]c2ncc(-c3cc4cc[nH]c4cn3)cc2n1CC1CCOCC1` [Example 83, 6-(1H-Pyrrolo[2,3-c]pyridin-5-yl)-1-(tetrahydro-2H-pyran-4-ylmethyl)-1,3-dihydro-2H-imidazo[4,5-b]pyridin-2-one], in the assay on WM-266-4 cells, the GI50 is under 3 µM. The IC50 on human mTOR was under 0.05 µM.

For the molecule `O=c1[nH]c2ncc(-c3cnc4[nH]cc(C(F)(F)F)c4c3)cc2n1CC1CCOCC1` [Example 84, 1-(Tetrahydro-2H-pyran-4-ylmethyl)-6-[3-(trifluoromethyl)-1H-pyrrolo[2,3-b]pyridin-5-yl]-1,3-dihydro-2H-imidazo[4,5-b]pyridin-2-one], the GI50 with WM-266-4 cells lay in the range of 3 to 25 µM. Also, the IC50 on human mTOR is under 0.05 µM.

With `CC(=O)c1c[nH]c2ncc(-c3cnc4[nH]c(=O)n(CC5CCOCC5)c4c3)cc12` [Example 85, 6-(3-Acetyl-1H-pyrrolo[2,3-b]pyridin-5-yl)-1-(tetrahydro-2H-pyran-4-ylmethyl)-1,3-dihydro-2H-imidazo[4,5-b]pyridin-2-one], the GI50 in the assay with WM-266-4 cells lay in the range of 3 to 25 µM. Also, the IC50 on human mTOR was in the range of 0.1 to 5 µM.

`CCOCc1cc2cc(-c3cnc4[nH]c(=O)n(CC5CCOCC5)c4c3)cnc2[nH]1` [Example 86, 6-[2-(Ethoxymethyl)-1H-pyrrolo[2,3-b]pyridin-5-yl]-1-(tetrahydro-2H-pyran-4-ylmethyl)-1,3-dihydro-2H-imidazo[4,5-b]pyridin-2-one]: the GI50 in the assay on WM-266-4 cells fell in the range of 3 to 25 µM. Further, at human mTOR, the 50% inhibitory concentration (IC50) fell in the range of 0.1 to 5 µM.

Consider `Cc1[nH]c2ncc(-c3cnc4[nH]c(=O)n(CC5CCOCC5)c4c3)cc2c1C` [Example 87, 6-(2,3-Dimethyl-1H-pyrrolo[2,3-b]pyridin-5-yl)-1-(tetrahydro-2H-pyran-4-ylmethyl)-1,3-dihydro-2H-imidazo[4,5-b]pyridin-2-one], for which the GI50 with WM-266-4 cells is 3 to 25 µM. Moreover, the IC50 at human mTOR lay in the range of 0.1 to 5 µM.

On to `O=c1[nH]c2ncc(-c3cnc4cc[nH]c4c3)cc2n1CC1CCOCC1` [Example 88, 6-(1H-Pyrrolo[3,2-b]pyridin-6-yl)-1-(tetrahydro-2H-pyran-4-ylmethyl)-1,3-dihydro-2H-imidazo[4,5-b]pyridin-2-one], for which, in the assay with WM-266-4 cells, the GI50 is under 3 µM. Further, on human mTOR, the IC50 is 0.1 to 5 µM.

Regarding `CN(C)Cc1c[nH]c2ncc(-c3cnc4[nH]c(=O)n(CC5CCOCC5)c4c3)cc12` [Example 89, 6-{3-[(Dimethylamino)methyl]-1H-pyrrolo[2,3-b]pyridin-5-yl}-1-(tetrahydro-2H-pyran-4-ylmethyl)-1,3-dihydro-2H-imidazo[4,5-b]pyridin-2-one], the GI50 in the assay on WM-266-4 cells fell in the range of 3 to 25 µM. The half-inhibitory concentration (IC50) on human mTOR is 0.1 to 5 µM.

Regarding `CC(C)c1c[nH]c2ncc(-c3cnc4[nH]c(=O)n(CC5CCOCC5)c4c3)cc12` [Example 90, 6-{3-Isopropyl-1H-pyrrolo[2,3-b]pyridin-5-yl}-1-(tetrahydro-2H-pyran-4-ylmethyl)-1,3-dihydro-2H-imidazo[4,5-b]pyridin-2-one], the GI50 in the assay with WM-266-4 cells was under 3 µM. Further, at human mTOR, the IC50 was under 0.05 µM.

`N#Cc1c(-c2cnc3[nH]c(=O)n(CC4CCOCC4)c3c2)cnc2[nH]ccc12` [Example 91, 5-[2-Oxo-1-(tetrahydro-2H-pyran-4-ylmethyl)-2,3-dihydro-1H-imidazo[4,5-b]pyridin-6-yl]-1H-pyrrolo[2,3-b]pyridine-4-carbonitrile]: the GI50 with WM-266-4 cells was under 3 µM. Also, the half-inhibitory concentration (IC50) at human mTOR is 0.1 to 5 µM.

As for `CCOC(=O)c1c[nH]c2ncc(-c3cnc4[nH]c(=O)n(CC5CCOCC5)c4c3)cc12` [Example 92, Ethyl 5-[2-oxo-1-(tetrahydro-2H-pyran-4-ylmethyl)-2,3-dihydro-1H-imidazo[4,5-b]pyridin-6-yl]-1H-pyrrolo[2,3-b]pyridine-3-carboxylate], in the assay with WM-266-4 cells, the GI50 was under 3 µM. Besides, the IC50 at human mTOR was under 0.05 µM.

Consider `O=C(O)c1c[nH]c2ncc(-c3cnc4[nH]c(=O)n(CC5CCOCC5)c4c3)cc12` [Example 93, 5-[2-oxo-1-(tetrahydro-2H-pyran-4-ylmethyl)-2,3-dihydro-1H-imidazo[4,5-b]pyridin-6-yl]-1H-pyrrolo[2,3-b]pyridine-3-carboxylic acid], for which the GI50 in the assay on WM-266-4 cells fell in the range of 3 to 25 µM. Moreover, on human mTOR, the IC50 was under 0.05 µM.

As for `CNC(=O)c1c[nH]c2ncc(-c3cnc4[nH]c(=O)n(CC5CCOCC5)c4c3)cc12` [Example 94, N-Methyl-5-[2-oxo-1-(tetrahydro-2H-pyran-4-ylmethyl)-2,3-dihydro-1H-imidazo[4,5-b]pyridin-6-yl]-1H-pyrrolo[2,3-b]pyridine-3-carboxamide], the GI50 with WM-266-4 cells was in the range of 3 to 25 µM. Also, the IC50 on human mTOR fell in the range of 0.1 to 5 µM.

In the case of `N#Cc1c[nH]c2ncc(-c3cnc4[nH]c(=O)n(CC5CCOCC5)c4c3)cc12` [Example 95, 5-[2-Oxo-1-(tetrahydro-2H-pyran-4-ylmethyl)-2,3-dihydro-1H-imidazo[4,5-b]pyridin-6-yl]-1H-pyrrolo[2,3-b]pyridine-3-carbonitrile], the GI50 with WM-266-4 cells lay within 3 to 25 µM. Moreover, the IC50 at human mTOR was under 0.05 µM.

Turning to `O=c1[nH]c2ncc(-c3cnc4[nH]cc(F)c4c3)cc2n1CC1CCOCC1` [Example 96, 6-(3-Fluoro-1H-pyrrolo[2,3-b]pyridin-5-yl)-1-(tetrahydro-2H-pyran-4-ylmethyl)-1,3-dihydro-2H-imidazo[4,5-b]pyridin-2-one], the GI50 in the assay on WM-266-4 cells was under 3 µM. The IC50 on human mTOR is under 0.05 µM.
